Entries after “also recorded” stand apart in the source; their conditions may differ.
Assays:
[1] = tested on: bovine chondrocytes; test: Glycosaminoglycan content per chondrocyte (GAG with respect to DNA); assay type: cell-based; conditions: for effect on GAGs levels per chondrocyte (in words): 5 and 10 mM, FIG. 4
Description: Bovine chondrocytes were used as starting point and the same methodology was followed as in Example 1 (chondrocyte proliferation measured through DNA levels), but in this case each compound was tested at two concentrations (5 and 10 mM).
The GAG content was determined, after digestion with papain, with the Blyscan™ assay (kit) from Biocolor Ltd.
(§1) The evaluation of the differences between all compounds and the control condition was assayed using analysis of variance (ANOVA). Then, the LSD test was performed to determine the difference between each compound and the control condition. They were considered statistically significant when p≦0.05.

[2] = tested on: chondrocytes of bovine origin; test: Proliferation of chondrocytes measured through DNA levels (alginate beads); assay type: cell-based; conditions: 10 days culture in alginate beads; for effect on DNA levels per alginate bead (in words): 1, 5 and 10 mM, FIG. 1; for increase in DNA levels relative to the control (without compound): 10 mM
Description: Chondrocytes of bovine origin were isolated using digestion with collagenase following a previously described process (B. Beekman et al., Exp. Cell Res., 237, 135-141 (1997)).
The isolated bovine chondrocytes were cultured following a methodology described in the literature (J. DeGroot, et al., 266, 303-310 (2001)). The chondrocytes were transferred to an alginate support matrix, forming alginate beads which contain the cells at a concentration of 2.5×10^6 cells/ml, and DMEM (Dulbecco's Modified Eagle's Medium) with Glutamax was added to them supplemented with ascorbic acid, penicillin, streptomycin and FCS (foetal cow serum). After 24 hours, the medium was renewed and the chondrocytes contained in alginate beads (5 beads/well, with 250 μl of medium/well, in plates of 48 wells) were cultured in the absence (control) or presence of the compound to test (at concentrations of 1, 5 and 10 mM). The medium was regenerated twice a week. At the end of 10 days, the beads were collected (5 beads in each well, n=3 wells per condition) and they were stored at a temperature of −20° C. until making the analysis.
To quantify DNA levels, the beads were digested with papain and Hoechst 33258 (bisbenzimide) dye was used. DNA levels per alginate bead were determined.
as §1

[3] = tested on: chondrocytes of bovine origin; test: Release of glycosaminoglycans from the chondrocytes in alginate beads after stimulation with IL-1β; assay type: cell-based; conditions: IL-1β 20 ng/ml, 48 hours; for effect on release of GAGs by the chondrocytes (in words): 10 mM, FIG. 2
Description: Chondrocytes of bovine origin were cultured for 21 days in alginate beads as support matrix; approximately 100 beads in 75 cm^2 culture dishes in 25 ml of medium, without adding the compounds to be tested. The medium was regenerated twice a week. After 21 days of culture, the beads were transferred to 48-well plates, 5 beads per well, 250 μl of medium per well. The compounds to be tested were added on day 21 (mannosamine hydrochloride, glucosamine hydrochloride and N-acetylglucosamine) to evaluate the effect on the degradation of the extracellular matrix after stimulation with IL-1β (20 ng/ml). Each compound was tested at concentrations of 1 and 10 mM. In each experiment each concentration was tested at n=3 wells, except in the control (n=8 wells). Once the alginate beads have been incubated with IL-1β (20 ng/ml) and the compounds during 48 hours, the culture medium was collected (day 21 to day 23). The GAGs content in the beads and in the culture medium on day 23 was measured (release of GAGs mediated by aggrecanase). The GAGs content was determined, after digestion with papain, with the Blyscan™ assay (kit) from Biocolor Ltd.
The results were expressed as a percentage of released GAGs with respect to total GAGs.
as §1

[4] = tested on: metalloprotease activity (MMP) of the chondrocytes; test: Metalloprotease activity of the chondrocytes in alginate beads after stimulation with IL-1β and activation with APMA; assay type: cell-based, bovine; conditions: IL-1β 20 ng/ml, 1 mM APMA
Description: Bovine chondrocytes were used as starting point and the methodology of the Example 2 was followed, but in this case each compound was tested at two concentrations (5 and 10 mM).
The chondrocytes were cultured for 21 days in alginate to produce extracellular matrix. After 2 days of stimulation with IL-1β and with or without compounds, the medium was renewed. The metalloprotease activity was then determined in the culture medium after 2 hours of incubation with 20 ng/ml of IL-1β, 1 mM of APMA and with or without the compounds. The metalloprotease activity was quantified using the substrate for metalloproteases TNO 211-F (I. Tchetverikov et al., Clin. Exp. Rheumatol. 21, 711-8 (2003)).
as §1

SMILES	effect on GAGs levels per chondrocyte (in words) [1]	effect on DNA levels per alginate bead (in words) [2]	increase of GAG content per chondrocyte with respect to the control (culture without product) ([1]; 10 mM)	effect on release of GAGs by the chondrocytes (in words) [3]	increase in DNA levels relative to the control (without compound) [2]	reduction of the release of GAGs with respect to the control (culture without compound) ([3]; upper concentration (10 mM))	reduction in metalloprotease activity with respect to the control ([4]; 10 mM)	effect on metalloprotease activity (in words) ([4]; 5 and 10 mM, FIG. 3)	effect on DNA levels per alginate bead (in words) ([2]; hydrochloride)
CC(=O)N[C@H]1C(O)O[C@H](CO)[C@@H](O)[C@@H]1O (stereo partly shown) [N-acetylglucosamine, reference compound]	No significant effect	No significant effect	–	–	–	–	–	–	–
CC(=O)N[C@@H]1C(O)O[C@H](CO)[C@@H](O)[C@@H]1O (stereo partly shown) [N-acetylmannosamine]	dose-dependent increase in GAGs levels per chondrocyte	–	63%	–	–	–	–	–	–
Cl.N[C@H]1C(O)O[C@H](CO)[C@@H](O)[C@@H]1O (stereo partly shown) [glucosamine hydrochloride, reference compound]	–	dose-dependent increase in DNA levels	–	reduced the release of GAGs	4 times	–	–	–	–
Cl.N[C@@H]1C(O)O[C@H](CO)[C@@H](O)[C@@H]1O (stereo partly shown) [mannosamine hydrochloride]	–	–	–	reduced the release of GAGs	10 times	30%	30%	the only one which reduced metalloprotease activity	highest levels of DNA/bead; also recorded: dose-dependent increase in DNA levels
